Experiments:
Mus musculus [1] = assay: Pro-angiogenic activity in Balb/c mouse subcutaneously implanted 4 times with 10 ug/implant compound treated mouse EHS-derived matrigel assessed as FGF2-induced matrigel plug vascularization by measuring increase in hemoglobin level measured after 7 to 10 days by spectrophotometric analysis relative to control; type: functional
Mus musculus [2] = assay: Antiangiogenic activity in Balb/c mouse subcutaneously implanted 4 times with 10 ug/implant compound treated mouse EHS-derived matrigel assessed as inhibition of FGF2-induced matrigel plug vascularization by measuring decrease in hemoglobin level measured after 7 to 10 days by spectrophotometric analysis relative to control; type: functional

| Structure (SMILES) | fold change (FC) (Mus musculus [1]) | inhibition (INH) (Mus musculus [2]) [%] |
| --- | --- | --- |
| N[C@@H](Cc1cc(I)c(Oc2ccc(O)c(I)c2)c(I)c1)C(=O)O [LIOTHYRONINE] | 1.4 |  |
| O=C(O)Cc1cc(I)c(Oc2ccc(O)cc2)c(I)c1 | 1.6 |  |
| O=C(O)Cc1cc(I)c(Oc2cc(I)c(O)c(I)c2)c(I)c1 [TETRAC] |  | 50 |
